Patent publication US20250333424A1, “ANTIVIRAL COMPOUNDS” (Gilead Sciences, Inc., priority 2024, published 2025)
pEC50: −log10 of the molar value.

Assays:
[1] = system: CD4 cells, isolated from healthy donor PMBCs, infected with HIV VSV-G pseudotyped GFP-GAG reporter virus; assay: tissue or blood; format: cell-based; details: Homo sapiens, 72 h
[2] = system: monocytic THP1 cells infected with HIV VSV-G pseudotyped GFP-NEF reporter virus; assay: cells; format: cell-based; details: Human immunodeficiency virus 1, THP-1, 24 h

Cc1cc(/C=C/C#N)cc(C)c1Oc1nc(NC23CC(C#N)(C2)C3)nc2nc(-c3cnn(C)c3)[nH]c12 [Compound 64, (E)-3-((6-(4-(2-cyanovinyl)-2,6-dimethylphenoxy)-8-(1-methyl-1H-pyrazol-4-yl)-7H-purin-2-yl)amino)bicyclo[1.1.1]pentane-1-carbonitrile]
pEC50 [1]: 6.56
pEC50 [2]: 6.91

Cc1cc(/C=C/C#N)cc(C)c1Oc1nc(NC23CC(C#N)(C2)C3(F)F)nc2nn(C)cc12 [Compound 76, (E)-3-((4-(4-(2-cyanovinyl)-2,6-dimethylphenoxy)-2-methyl-2H-pyrazolo[3,4-d]pyrimidin-6-yl)amino)-2,2-difluorobicyclo[1.1.1]pentane-1-carbonitrile]
pEC50 [1]: 7.71
pEC50 [2]: 7.60

Cc1cc(/C=C/C#N)cc(C)c1Oc1nc(NC23CC(C#N)(C2)C3)nc2[nH]nnc12 [Compound 80, €-3-((7-(4-(2-cyanovinyl)-2,6-dimethylphenoxy)-3H-[1,2,3]triazolo[4,5-d]pyrimidin-5-yl)amino)bicyclo[1.1.1]pentane-1-carbonitrile]
pEC50 [1]: 6.26
pEC50 [2]: 6.23

Cc1cc(/C=C/C#N)cc(C)c1OC1=NC(NC23CC(C#N)(C2)C3)=NC2N=CN(C)C12 (stereo not shown) [Compound 89, (E)-3-((6-(4-(2-cyanovinyl)-2,6-dimethylphenoxy)-7-methyl-4,5-dihydro-7H-purin-2-yl)amino)bicyclo[1.1.1]pentane-1-carbonitrile]
pEC50 [1]: 7.78
pEC50 [2]: 7.61

Cc1cc(/C=C/C#N)cc(C)c1Oc1nc(NC23CC(C#N)(C2)C3)nc2nc(C)n(C)c12 [Compound 97, (E)-3-((6-(4-(2-cyanovinyl)-2,6-dimethylphenoxy)-7,8-dimethyl-7H-purin-2-yl)amino)bicyclo[1.1.1]pentane-1-carbonitrile]
pEC50 [1]: 7.29
pEC50 [2]: 7.49

Cc1cc(/C=C/C#N)cc(C)c1Oc1nc(NC23CC(C#N)(C2)C3)nc2ncn(CC(F)(F)F)c12 [Compound 106, (E)-3-((6-(4-(2-cyanovinyl)-2,6-dimethylphenoxy)-7-(2,2,2-trifluoroethyl)-7H-purin-2-yl)amino)bicyclo[1.1.1]pentane-1-carbonitrile]
pEC50 [1]: 6.63
pEC50 [2]: 6.67

Cc1cc(/C=C/C#N)cc(C)c1Oc1nc(NC23CC(C#N)(C2)C3)nc2[nH]nc(C#N)c12 [Compound 112, (E)-6-((3-cyanobicyclo[1.1.1]pentan-1-yl)amino)-4-(4-(2-cyanovinyl)-2,6-dimethylphenoxy)-1H-pyrazolo[3,4-d]pyrimidine-3-carbonitrile]
pEC50 [1]: 6.53
pEC50 [2]: 6.13

Cc1cc(/C=C/C#N)cc(C)c1Oc1nc(NC23CC(C#N)(C2)C3)nc2c1ncn2C(C)C [Compound 113, (E)-3-((6-(4-(2-cyanovinyl)-2,6-dimethylphenoxy)-9-isopropyl-9H-purin-2-yl)amino)bicyclo[1.1.1]pentane-1-carbonitrile]
pEC50 [1]: 6.99
pEC50 [2]: 6.77

Cc1cc(/C=C/C#N)cc(C)c1Oc1nc(NC23CC(C#N)(C2)C3)nc2cc[nH]c12 [Compound 115, (E)-3-((4-(4-(2-cyanovinyl)-2,6-dimethylphenoxy)-5H-pyrrolo[3,2-d]pyrimidin-2-yl)amino)bicyclo[1.1.1]pentane-1-carbonitrile]
pEC50 [1]: 6.95
pEC50 [2]: 7.00

Cc1cc(/C=C/C#N)cc(C)c1Oc1nc(NC23CC(C#N)(C2)C3)nc2[nH]nc(C)c12 [Compound 119, 3-[[4-[4-[(E)-2-cyanovinyl]-2,6-dimethyl-phenoxy]-3-methyl-1H-pyrazolo[3,4-d]pyrimidin-6-yl]amino]bicyclo[11.1.1]pentane-1-carbonitrile]
pEC50 [1]: 7.77
pEC50 [2]: 7.72

Cc1cc(/C=C/C#N)cc(C)c1Oc1nc(NC23CC(C#N)(C2)C3)nc2nn(C)cc12 [Compound 120, 3-[[4-[4-[(E)-2-cyanovinyl]-2,6-dimethyl-phenoxy]-2-methyl-pyrazolo[3,4-d]pyrimidin-6-yl]amino]bicyclo[1.1.1]pentane-1-carbonitrile]
pEC50 [1]: 7.64
pEC50 [2]: 7.67
